In US20260166162A1, “CARBON CHAIN SUBSTANCE FOR REGULATING TRANSMEMBRANE TRANSPORT AND FLUIDITY OF CELL MEMBRANES, AND PREPARATION AND USE THEREOF” (priority 2022, published 2026):
“And” between values parts separate entries of the source, which are not always exact repeats. Identical values can stand only once. Like-named read-outs stand apart in the source and are kept apart here.

Columns and labels:
Hela cells = assay: Cell membrane fluidity (Laurdan fluorescence recovery) in Hela cells; type: cell-based
Neocopyovirus = type: in vivo; details: 1 mM; n=3
293T cells = assay: Cellular phagocytosis of DiD-loaded lipid vesicles (nano-drugs) by 293T cells (Example II-51, Table II-29); type: cell-based; details: 293T cells pretreated 4 h, DiD lipid vesicles 2 h, n=3, untreated control 226.46 ± 1.26
[1] = tested on: HPV pseudovirus (HPV6-GFP); type: cell-based; details: 293FT cells pretreated 4 h, n=3
[2] = tested on: SARS-CoV-2 pseudovirus (B.1.526.2); type: cell-based
[3] = tested on: influenza pseudovirus H7N9-Fluc; assay: microbe, parasite or virus in culture; type: cell-based; details: n=3
HIV pseudovirus (18A-41) = type: cell-based; details: 293T cells pretreated 4 h, n=3
[4] = 100 μM, negative value = promotes infection

`O=C(O)CCCCCCC(=O)O` [octanedioic acid] was tested, and the “Fluorescence recovery rate %” value (Hela cells; 2 nM, 20 s) was 63.58%, the “Fluorescence recovery rate %” value (Hela cells; 2 nM, 40 s) was 64.25% and the “Fluorescence recovery rate %” value (Hela cells; 2 nM, 60 s) was 65.77%. For the same compound, the “Fluorescence recovery rate %” value (Hela cells; 2 nM, 80 s) was 65.12%, the “Fluorescence recovery rate %” value (Hela cells; 5 nM, 20 s) was 64.56% and the “Fluorescence recovery rate %” value (Hela cells; 5 nM, 40 s) was 64.88%. For the same compound, the “Fluorescence recovery rate %” value (Hela cells; 5 nM, 60 s) was 64.78%, the “Fluorescence recovery rate %” value (Hela cells; 5 nM, 80 s) was 65.09% and the “Fluorescence recovery rate %” value (Hela cells; 10 nM, 20 s) was 63.99%. The “Fluorescence recovery rate %” value (Hela cells; 10 nM, 40 s) was 64.23%, the “Fluorescence recovery rate %” value (Hela cells; 10 nM, 60 s) was 64.45% and the “Fluorescence recovery rate %” value (Hela cells; 10 nM, 80 s) was 64.66%. For the same compound, the “Fluorescence recovery rate %” value (Hela cells; 50 nM, 20 s) was 66.09%, the “Fluorescence recovery rate %” value (Hela cells; 50 nM, 40 s) was 66.42% and the “Fluorescence recovery rate %” value (Hela cells; 50 nM, 60 s) was 66.89%. For the same compound, the “Fluorescence recovery rate %” value (Hela cells; 50 nM, 80 s) was 67.94%, the “Fluorescence recovery rate %” value (Hela cells; 50 μM, 20 s) was 64.41% and the “Fluorescence recovery rate %” value (Hela cells; 50 μM, 40 s) was 70.05%. For the same compound, the “Fluorescence recovery rate %” value (Hela cells; 50 μM, 60 s) was 74.65%, the “Fluorescence recovery rate %” value (Hela cells; 50 μM, 80 s) was 80.36% and the “Fluorescence recovery rate %” value (Hela cells; 100 μM, 20 s) was 65.77%. For the same compound, the “Fluorescence recovery rate %” value (Hela cells; 100 μM, 40 s) was 71.36%, the “Fluorescence recovery rate %” value (Hela cells; 100 μM, 60 s) was 76.81% and the “Fluorescence recovery rate %” value (Hela cells; 100 μM, 80 s) was 79.79%. The Fluorescence intensity (Neocopyovirus) was 2.9 ± 0.22, the Fluorescence intensity (293T cells; 2 nM) was 108.61 ± 5.68 and the Fluorescence intensity (293T cells; 5 nM) was 68.71 ± 4.36. The Fluorescence intensity (293T cells; 10 nM) was 68.98 ± 8.56, the Fluorescence intensity (293T cells; 50 nM) was 50.66 ± 5.66 and the Fluorescence intensity (293T cells; 100 nM) was 44.30 ± 6.35. For the same compound, the Fluorescence intensity (293T cells; 1 uM) was 215.30 ± 5.36, the Fluorescence intensity (293T cells; 10 uM) was 349.34 ± 9.48 and the Fluorescence intensity (293T cells; 50 uM) was 21.83 ± 1.85. For the same compound, the Fluorescence intensity (293T cells; 100 uM) was 2.79 ± 0.22.
In the case of Adenosine-erucic acid [Adenosine-C22-1], the “Inhibition rate (%)” value ([1]; 2 nM) is reported as 80.11 ± 3.66%, the “Inhibition rate (%)” value ([1]; 5 nM) is reported as 85.69 ± 4.23% and the “Inhibition rate (%)” value ([1]; 10 nM) is reported as 90.35 ± 4.69%. The “Inhibition rate (%)” value ([1]; 50 nM) was 92.37 ± 3.35%, the “Inhibition rate (%)” value ([1]; 100 nM) was 94.75 ± 1.67% and the “Inhibition rate (%)” value ([1]; 1 μM) was 32.83 ± 2.37%. For the same compound, the “Inhibition rate (%)” value ([1]; 10 μM) was 54.26 ± 1.83%, the “Inhibition rate (%)” value ([1]; 50 μM) was 91.84 ± 3.95% and the “Inhibition rate (%)” value [1, 4] was 94.11 ± 2.69%. For the same compound, the “Inhibition rate (%)” value ([2]; 0.002 µM) was 50.54 ± 1.57%, the “Inhibition rate (%)” value ([2]; 0.005 µM) was 60.66 ± 1.59% and the “Inhibition rate (%)” value ([2]; 0.01 µM) was 58.34 ± 1.25%. The “Inhibition rate (%)” value ([2]; 0.05 µM) was 57.33 ± 1.58%, the “Inhibition rate (%)” value ([2]; 0.1 µM) was 64.66 ± 8.23% and the “Inhibition rate (%)” value ([2]; 1 µM) was -22.83 ± 0.93%. For the same compound, the “Inhibition rate (%)” value ([2]; 10 µM) was -44.26 ± 1.26%, the “Inhibition rate (%)” value ([2]; 50 µM) was 81.44 ± 0.54% and the “Inhibition rate (%)” value ([2]; 100 µM) was 90.08 ± 1.21%. For the same compound, the Fluorescence intensity (293T cells; 2 nM) was 112.01 ± 8.24 and 99.55 ± 5.66, the Fluorescence intensity (293T cells; 5 nM) was 89.09 ± 4.19 and 46.06 ± 5.06 and the Fluorescence intensity (293T cells; 1 uM) was 278.16 ± 8.15 and 299.00 ± 23.21. The Fluorescence intensity (293T cells; 10 uM) was 326.69 ± 10.13 and 171.00 ± 14.23.
Ascorbic acid-eicosapentaenoic acid gave a Fluorescence intensity (Neocopyovirus) of 2.9 ± 0.68.
Glucosamine-docosahexaenoic acid was tested, and the Fluorescence intensity (Neocopyovirus) was 3.1 ± 0.65.
In the case of Glucosamine-erucic acid, the Fluorescence intensity (Neocopyovirus) is reported as 6.8 ± 0.49, the “Inhibition rate (%)” value ([3]; 2 nM) is reported as 50.54 ± 3.54% and the “Inhibition rate (%)” value ([3]; 5 nM) is reported as 39.66 ± 3.66%. The “Inhibition rate (%)” value ([3]; 10 nM) was 48.04 ± 7.56%, the “Inhibition rate (%)” value ([3]; 50 nM) was 47.33 ± 4.56% and the “Inhibition rate (%)” value ([3]; 100 nM) was 53.86 ± 3.98%. The “Inhibition rate (%)” value ([3]; 1 μM) was 12.07 ± 2.65%, the “Inhibition rate (%)” value ([3]; 10 μM) was 54.05 ± 5.05% and the “Inhibition rate (%)” value ([3]; 50 μM) was 91.44 ± 4.48%. The “Inhibition rate (%)” value ([3]; 100 μM) was 99.78 ± 5.64%.
For Threonine-tetracosanoic acid, the Fluorescence intensity (Neocopyovirus) was 2.9 ± 0.11, the “Inhibition rate (%)” value (HIV pseudovirus (18A-41); 2 nM) was 81.01 ± 5.26% and the “Inhibition rate (%)” value (HIV pseudovirus (18A-41); 5 nM) was 92.25 ± 5.03%. For the same compound, the “Inhibition rate (%)” value (HIV pseudovirus (18A-41); 10 nM) was 94.06 ± 6.46%, the “Inhibition rate (%)” value (HIV pseudovirus (18A-41); 50 nM) was 99.01 ± 6.33% and the “Inhibition rate (%)” value (HIV pseudovirus (18A-41); 100 nM) was 98.64 ± 5.77%. For the same compound, the “Inhibition rate (%)” value (HIV pseudovirus (18A-41); 1 μM) was -42.03 ± 3.83%, the “Inhibition rate (%)” value (HIV pseudovirus (18A-41); 10 μM) was -64.26 ± 6.54% and the “Inhibition rate (%)” value (HIV pseudovirus (18A-41); 50 μM) was 81.96 ± 6.75%. For the same compound, the “Inhibition rate (%)” value (HIV pseudovirus (18A-41); [4]) was 83.84 ± 3.84%.
